Laboratory results published in paper PMC6920806, “Synthesis of β-D-galactopyranoside-Presenting Glycoclusters, Investigation of Their Interactions with Pseudomonas aeruginosa Lectin A (PA-IL) and Evaluation of Their Anti-Adhesion Potential” (Biomolecules, 2019).
Values after ≈ are worked out from the molar mass of the structure shown.

Tests used:
[1] = tested on: adhesion of P. aeruginosa (ST 1763) to epithelial bronchial cells (CuFi-1); design: method as in PMID 31216664; settings: previous study; cited from earlier work
lectin PA-IL [2] = biological target: T1, lectin PA-IL (Pseudomonas aeruginosa, UniProt Q05097); assay: Hemagglutination inhibition assay (HIA) with microscope detection; format: biochemical
T1 construct: made in house; host or cells: Escherichia coli BL21(DE3)
T1 sequence (Q05097 2-122): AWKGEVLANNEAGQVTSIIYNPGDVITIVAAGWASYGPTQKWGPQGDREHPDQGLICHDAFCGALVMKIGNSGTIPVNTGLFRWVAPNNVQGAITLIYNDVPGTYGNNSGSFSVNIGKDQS
Procedure: PA-IL was dissolved in the buffer with calcium ions suitable for the activity of the lectin (20 mM Tris/HCl, 150 mM NaCl, 5 mM CaCl2, pH = 7.5) to the concentration 0.25 mg mL^−1. Lectin was mixed with carbohydrate inhibitors serially diluted in the buffer in a 5 µL:5 µL ratio. Therefore, the final (working) concentration of the lectin was 0.125 mg mL^−1. A total of 10 µL of 20% papain-treated, azid-stabilized red blood cells B^+ in the buffer was then added, and the mixture was thoroughly mixed and incubated for 5 min at room temperature. After incubation, the mixture was again mixed, transferred to a microscope slide, and examined. The examination was conducted using the Levenhuk D2L NG Digital Microscope (Levenhuk, Tampa, FL, USA). Images were obtained with a Levenhuk D2L digital camera (Levenhuk, Tampa, FL, USA) using the software ToupView for Windows (Version 3.7, Levenhuk, Tampa, FL, USA). The positive (experiment without inhibitor) and negative control (experiment without lectin) were prepared and processed in the same way using the appropriate volume of dissolving buffer instead of the omitted components. The minimal inhibitory concentration (MIC) of the inhibitor able to inhibit hemagglutination was determined and compared with the standard (D-galactose) and the potency of the inhibitor was calculated (MIC of the standard/MIC of the inhibitor).

lectin PA-IL [3] = biological target: T1, lectin PA-IL; assay: SPR inhibition of PA-IL binding to immobilized D-galactosides
Procedure: Surface plasmon resonance (SPR) experiments were performed on a BIAcore T200 instrument (GE Healthcare, Chicago, IL, USA) at 25 °C, using HBST running buffer (10 mM HEPES, 150 mM NaCl, 0.5 mM CaCl2, 0.05% Tween 20, pH = 7). A CM5 sensor chip (GE Healthcare, Chicago, IL, USA) covered with a carboxymethylated dextran matrix was used for ligand immobilization. The sensor chip surface was activated with N-ethyl-N-(3-dimethylaminopropyl)carbodiimide/N-hydroxysuccinimide solution and then coated with streptavidin (Sigma-Aldrich, St. Louis, MO, USA) in 10 mM acetate pH = 5.0 according to the manufacturer’s standard protocol to a final response of 7000 RU. Unreacted groups were blocked with 1 M ethanolamine-HCl, pH = 8.5. 0.5 mM biotinylated carbohydrate (1:1 mixture of biotin-α-D-galactoside and biotin-β-D-galactoside for measuring channel and α-L-fucoside for blank channel, all Lectinity, Moskow, Russia) was injected into a particular channel at a flow rate of 5 μL min^−1.
In the experimental setup, SPR inhibition measurements were carried out simultaneously on both measuring and blank channels at a flow rate of 5 µL min^−1. […] The response of the blank channel was subtracted from the response of lectin bound to the galactose-modified surface at equilibrium and plotted against the concentration of inhibitor in order to determine IC50 (concentration of inhibitor resulting in 50% inhibition of binding). As IC50 is not a constant and depends on the experimental set-up, a parameter called potency was used for characterization. The potency of a tested inhibitor is the ratio of IC50 of a chosen standard inhibitor (in this case, D-galactose) and the inhibitor in question. Pure lectin PA-IL was used as a control (0% inhibition).

lectin PA-IL [4] = biological target: T1, lectin PA-IL; assay: Isothermal titration microcalorimetry (ITC); format: binding
Procedure: All the experiments were performed on MicroCal iTC200 (Malvern Instruments, Malvern, UK) at 25 °C. The freeze-dried lectin PA-IL was dissolved in 0.1 M Tris/HCl, 500 μM CaCl2, pH = 7.5, and equilibrated at room temperature for 1 h before ITC measurements. Multivalent galactosylated compounds 4, 7, 10 and 13 were diluted in the same buffer and used in 0.25–0.5 mM concentrations. Aliquots of 2 µL of the compounds were added automatically to the 0.078 mM or 0.088 mM PA-IL in the calorimeter cell. Blank experiments (injections of compounds to the buffer) were performed and heat responses were subtracted. Integrated heat effects were analyzed by global fitting of data obtained from three independent titrations for each tested compound by non-linear regression using a single site-binding model (Microcal Origin 7, Malvern Instruments, Malvern, UK). Fitted data yielded the association constant (Ka) and the enthalpy of binding (ΔH). Other thermodynamic parameters, i.e., changes in free energy (ΔG) and entropy (ΔS), were calculated from the following equation: ΔG = ΔH − TΔS = −RT ln Ka, where T is the absolute temperature and R = 8.314 J mol^−1 K^−1. The monosaccharide D-galactose was used as a control; 4 mM D-galactose was added to the 0.147 mM PA-IL in the calorimeter cell. Two titration experiments were performed and the heat responses were processed and evaluated as mentioned above.

lectin PA-IL [5] = biological target: T1, lectin PA-IL; assay: Analytical ultracentrifugation (sedimentation velocity), cross-linking of lectin; settings: protein:ligand ratios 1:0.1, 1:1, 1:10
Procedure: Analytical ultracentrifugation experiments were performed using ProteomeLab XL-I analytical ultracentrifuge (Beckman Coulter, Indianapolis, IN, USA) equipped with an An-60 Ti rotor. Sedimentation velocity experiments were conducted in titanium double-sector centerpiece cells (Nanolytics Instruments, Potsdam, Germany) loaded with 390 µL of both protein sample and reference solution (PBS buffer, pH = 7.5). PA-IL without the added ligand and PA-IL samples pre-incubated with different concentrations of galactosylated dendrimers 4, 7, 10 and 13 and D-galactose (protein:ligand ratios of 1:0.1, 1:1 and 1:10) were analyzed by the sedimentation velocity experiment. All the measurements were performed in PBS buffer with 22 µM PA-IL. Data were collected using absorbance optics at 25 °C at a rotor speed of 48,000 rpm. Scans were collected at 280 nm (or alternatively at 294 nm to decrease the absorbance signal of the samples containing excess of the UV-absorbing ligands 4 and 10) at 5-min intervals and 0.003 cm spatial resolution in continuous scan mode. The partial specific volume of the protein and the solvent density and viscosity were calculated from the amino acid sequence and buffer composition, respectively, using the software Sednterp (http://bitcwiki.sr.unh.edu). The data were analyzed with the continuous c(s) distribution model implemented in the program Sedfit 15.01b. For the regularization procedure, a confidence level of 0.95 was used. The plots of c(s) distributions were created in GUSSI 1.3.1 [28].

Compound | most effective concentration [1] [µM] | Potency (MIC of standard/MIC of inhibitor) (lectin PA-IL [2]; HIA, standard D-galactose) | β (Potency/Valency) (lectin PA-IL [2]; HIA, standard D-galactose) | MIC (minimal inhibitory concentration) (lectin PA-IL [2]; inhibition of hemagglutination caused by PA-IL (0.125 mg mL−1), papain-treated red blood cells B+) [mM] | IC50 (lectin PA-IL [3]) [µM] | Potency (IC50 of standard/IC50 of inhibitor) (lectin PA-IL [3]; SPR, standard D-galactose) | β (Potency/Valency) (lectin PA-IL [3]; SPR, standard D-galactose) | Kd (lectin PA-IL [4]) [µM] | ΔH (lectin PA-IL [4]; ITC, 25 °C) [kcal/mol] | −T ΔS (lectin PA-IL [4]; ITC, 25 °C, calculated from ΔG = ΔH − TΔS) [kcal/mol] | ΔG (lectin PA-IL [4]; ITC, 25 °C, calculated from −RT ln Ka) [kcal/mol] | n (stoichiometry) (lectin PA-IL [4]; ITC, 25 °C, single site-binding model) | cross-linking of PA-IL (formation of the 6.4 S particle) (lectin PA-IL [5])
C[C@@H]1O[C@@H](OCc2cn(CCOCCOCCOCCn3cc(COCC(COCc4cn(CCOCCOCCOCCn5cc(CO[C@@H]6O[C@@H](C)[C@@H](O)[C@@H](O)[C@@H]6O)nn5)nn4)(COCc4cn(CCOCCOCCOCCn5cc(CO[C@@H]6O[C@@H](C)[C@@H](O)[C@@H](O)[C@@H]6O)nn5)nn4)COCc4cn(CCOCCOCCOCCn5cc(CO[C@@H]6O[C@@H](C)[C@@H](O)[C@@H](O)[C@@H]6O)nn5)nn4)nn3)nn2)[C@@H](O)[C@H](O)[C@@H]1O [Compound 14] | 250 | – | – | – | – | – | – | – | – | – | – | – | –
O=C[C@H](O)[C@@H](O)[C@@H](O)[C@H](O)CO [D-galactose, reference compound] | – | 1 | 1 | 6.25 (≈ 1130 µg/mL) | 187 | 1 | 1 | 147 | -9.03 ± 0.698 | 3.8 ± 0.507 | -5.23 ± 0.294 | 0.78 ± 0.05 | negligible effect
